Measured values published in PubChem BioAssay AID624167 (Sanford-Burnham Center for Chemical Genomics, 2012).
Active and inactive are the calls of the source.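 The calls were made as follows: active = mean IC50 for reducing PEG3 promoter reporter signal at or below a set limit, with IC50 above the limit in both counter screens; inactive = the rest, including counter screen hits.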

What was measured:
[1] = inhibition of PEG-3 promoter-driven reporter – cell-based, HeLa, luciferase, CREF/GAPDH counter-screen panel, dose response (AID 624167); conditions: CREF/GAPDH counter-screens; GAPDH; mean of runs
[2] = tested on: GAPDH; assay: as above; conditions: CREF/GAPDH counter-screens
[3] = molecular target: PEG-3 (UniProt Q6IN02); assay: as above; conditions: HeLa PEG-Prom luciferase reporter, overnight, CREF/GAPDH counter-screens, mean of runs
Sequence of PEG-3 (UniProt Q6IN02) (Q6IN02 whole entry, looked up): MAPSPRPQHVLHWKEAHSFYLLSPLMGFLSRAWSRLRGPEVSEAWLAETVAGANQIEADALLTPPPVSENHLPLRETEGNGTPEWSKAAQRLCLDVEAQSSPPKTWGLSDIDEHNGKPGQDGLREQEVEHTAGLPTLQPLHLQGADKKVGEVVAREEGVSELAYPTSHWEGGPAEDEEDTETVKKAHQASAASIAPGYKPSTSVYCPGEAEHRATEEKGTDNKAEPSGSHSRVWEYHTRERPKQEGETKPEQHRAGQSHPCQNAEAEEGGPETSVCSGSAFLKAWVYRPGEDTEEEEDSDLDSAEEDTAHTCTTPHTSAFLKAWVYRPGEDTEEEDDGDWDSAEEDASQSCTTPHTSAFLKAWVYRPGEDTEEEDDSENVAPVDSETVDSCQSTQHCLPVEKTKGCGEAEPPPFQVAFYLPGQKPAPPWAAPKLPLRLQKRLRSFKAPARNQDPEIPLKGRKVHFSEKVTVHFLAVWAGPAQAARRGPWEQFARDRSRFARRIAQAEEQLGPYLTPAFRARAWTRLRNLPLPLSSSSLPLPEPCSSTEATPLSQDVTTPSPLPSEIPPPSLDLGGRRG

[4] = tested on: PEG-3; assay: as above; conditions: HeLa PEG-Prom luciferase reporter, overnight, CREF/GAPDH counter-screens
[5] = tested on: Rat fibroblasts (CREF); assay: as above; conditions: CREF/GAPDH counter-screens
[6] = run 1, dose range 1, individual replicate IC50 per panel
[7] = run 2, dose range 1, individual replicate IC50 per panel

SMILES: CS(=O)(=O)c1ccc(-c2cn3cc(C(=O)O)ccc3n2)cc1
- IC50 [1]: 27.6 µM
- IC50 [2, 6]: 24.6 µM
- IC50 [2, 7]: 30.5 µM
- IC50 [3]: 10.2 µM
- IC50 [4, 6]: 6.91 µM
- IC50 [4, 7]: 13.4 µM
- IC50 ([5]; mean of runs): 42.9 µM
- IC50 [5, 6]: 42.3 µM
- IC50 [5, 7]: 43.4 µM

SMILES: O=C(CNC(=O)C(c1ccccc1)c1ccccc1)N/N=C/c1ccc(O)cc1O
- IC50 [1]: > 100 µM (inactive)
- IC50 [2, 6]: > 100 µM
- IC50 [2, 7]: > 100 µM
- IC50 [3]: inactive
- IC50 [4, 6]: 3.59 µM
- IC50 [4, 7]: > 100 µM
- IC50 ([5]; mean of runs): > 100 µM (inactive)
- IC50 [5, 6]: > 100 µM
- IC50 [5, 7]: > 100 µM

SMILES: Nc1nonc1-n1nnc(C(=O)N/N=C/c2cc(Br)ccc2O)c1CNc1ccccc1
- IC50 [1]: inactive
- IC50 [2, 6]: 45.2 µM
- IC50 [2, 7]: 59.3 µM
- IC50 [3]: 10.9 µM
- IC50 [4, 6]: 4.19 µM
- IC50 [4, 7]: 17.6 µM
- IC50 ([5]; mean of runs): 77.8 µM (inactive)
- IC50 [5, 6]: > 100 µM
- IC50 [5, 7]: 55.7 µM

SMILES: CC(C)(C)c1ccc(Cn2c(=O)cnc3ccccc32)cc1
- IC50 [1]: 6.22 µM
- IC50 [2, 6]: 5.99 µM
- IC50 [2, 7]: 6.44 µM
- IC50 [3]: inactive
- IC50 [4, 6]: 5.23 µM
- IC50 [4, 7]: > 100 µM
- IC50 ([5]; mean of runs): 51 µM (inactive)
- IC50 [5, 6]: > 100 µM
- IC50 [5, 7]: 1.93 µM

SMILES: CCOC(=O)c1c(SCCN2CCCCC2)n(-c2ccccc2)c(=S)n(-c2ccccc2)c1=O
- IC50 [1]: 18.8 µM
- IC50 [2, 6]: 18.8 µM
- IC50 [2, 7]: 18.8 µM
- IC50 [3]: 7.28 µM
- IC50 [4, 6]: 10.1 µM
- IC50 [4, 7]: 4.4 µM
- IC50 ([5]; mean of runs): 13.6 µM
- IC50 [5, 6]: 12.9 µM
- IC50 [5, 7]: 14.4 µM

SMILES: N=c1n(CC(=O)c2ccc([N+](=O)[O-])cc2)c2ccccc2n1Cc1ccc(Cl)cc1
- IC50 [1]: inactive
- IC50 [2, 6]: > 80 µM
- IC50 [2, 7]: 33.3 µM
- IC50 [3]: 9.2 µM
- IC50 [4, 6]: 9.65 µM
- IC50 [4, 7]: 8.76 µM
- IC50 ([5]; mean of runs): 27 µM
- IC50 [5, 6]: 26.4 µM
- IC50 [5, 7]: 27.6 µM

SMILES: O=C(Nc1ccc(Cc2ccncc2)cc1)c1ccc([N+](=O)[O-])o1
- IC50 [1]: inactive
- IC50 [2, 6]: 56.6 µM
- IC50 [2, 7]: 63.3 µM
- IC50 [3]: 10.5 µM
- IC50 [4, 6]: 13.2 µM
- IC50 [4, 7]: 7.69 µM
- IC50 ([5]; mean of runs): 14.2 µM
- IC50 [5, 6]: 14 µM
- IC50 [5, 7]: 14.3 µM

SMILES: O=C(N/N=C/c1ccc(Cl)c([N+](=O)[O-])c1)c1cc(-c2ccc3c4c(cccc24)CC3)n[nH]1
- IC50 [1]: 23 µM
- IC50 [2, 6]: 22.8 µM
- IC50 [2, 7]: 23.2 µM
- IC50 [3]: 8.14 µM
- IC50 [4, 6]: 11.2 µM
- IC50 [4, 7]: 5.1 µM
- IC50 ([5]; mean of runs): > 100 µM (inactive)
- IC50 [5, 6]: > 100 µM
- IC50 [5, 7]: > 100 µM

SMILES: Cc1cc(Br)ccc1NC(=O)CNC(=O)Cn1ncc(Cl)c(Cl)c1=O
- IC50 [1]: 10.9 µM
- IC50 [2, 6]: 10.1 µM
- IC50 [2, 7]: 11.8 µM
- IC50 [3]: 6.59 µM
- IC50 [4, 6]: 8.31 µM
- IC50 [4, 7]: 4.87 µM
- IC50 ([5]; mean of runs): 54.2 µM (inactive)
- IC50 [5, 6]: 8.5 µM
- IC50 [5, 7]: > 100 µM

SMILES: CN=c1sc2c(n1C)C(=O)c1ccccc1C2=O
- IC50 [1]: inactive
- IC50 [2, 6]: 29.9 µM
- IC50 [2, 7]: 48.4 µM
- IC50 [3]: 9.93 µM
- IC50 [4, 6]: 9.56 µM
- IC50 [4, 7]: 10.3 µM
- IC50 ([5]; mean of runs): 4.98 µM
- IC50 [5, 6]: 4.97 µM
- IC50 [5, 7]: 5 µM

SMILES: CCCCC(=O)NC(c1ccccc1)c1ccc2cccnc2c1O (stereo unspecified)
- IC50 [1]: > 100 µM (inactive)
- IC50 [2, 6]: > 100 µM
- IC50 [2, 7]: > 100 µM
- IC50 [3]: inactive
- IC50 [4, 6]: 2.84 µM
- IC50 [4, 7]: > 100 µM
- IC50 ([5]; mean of runs): > 100 µM (inactive)
- IC50 [5, 6]: > 100 µM
- IC50 [5, 7]: > 100 µM

SMILES: CCCCCCN1C=C/C(=C\C=C(C#N)C#N)c2ccccc21
- IC50 [1]: inactive
- IC50 [2, 6]: 1.24 µM
- IC50 [2, 7]: > 100 µM
- IC50 [3]: 10.2 µM
- IC50 [4, 6]: 13.4 µM
- IC50 [4, 7]: 7.03 µM
- IC50 ([5]; mean of runs): 55.3 µM (inactive)
- IC50 [5, 6]: > 100 µM
- IC50 [5, 7]: 10.7 µM

SMILES: Cc1cc(NC(c2ccc(Cl)cc2)c2ccc3cccnc3c2O)no1 (stereo unspecified)
- IC50 [1]: > 100 µM (inactive)
- IC50 [2, 6]: > 100 µM
- IC50 [2, 7]: > 100 µM
- IC50 [3]: 3.83 µM
- IC50 [4, 6]: 7.2 µM
- IC50 [4, 7]: 0.472 µM
- IC50 ([5]; mean of runs): 77.2 µM (inactive)
- IC50 [5, 6]: > 100 µM
- IC50 [5, 7]: 54.4 µM

SMILES: CCC(c1ccc(O)c(O)c1)C(CC)c1ccc(O)c(O)c1 (stereo unspecified)
- IC50 [1]: inactive
- IC50 [2, 6]: 35.6 µM
- IC50 [2, 7]: 33.7 µM
- IC50 [3]: 9.94 µM
- IC50 [4, 6]: 14.2 µM
- IC50 [4, 7]: 5.63 µM
- IC50 ([5]; mean of runs): 19.9 µM
- IC50 [5, 6]: 23 µM
- IC50 [5, 7]: 16.7 µM

SMILES: CN(C)c1ccc(NC(=S)c2ccccn2)cc1
- IC50 [3]: 2.58 µM
- IC50 [4, 6]: 2.19 µM
- IC50 [4, 7]: 2.97 µM
- IC50 ([5]; mean of runs): 1.2 µM
- IC50 [5, 6]: 1.25 µM
- IC50 [5, 7]: 1.15 µM

SMILES: COc1cccc(NC(=O)c2nc(S(C)(=O)=O)ncc2Cl)c1
- IC50 [3]: 7.74 µM
- IC50 [4, 6]: 8.84 µM
- IC50 [4, 7]: 6.64 µM
- IC50 ([5]; mean of runs): 9.29 µM
- IC50 [5, 6]: 10.2 µM
- IC50 [5, 7]: 8.36 µM

SMILES: C[C@@H]1C[C@@H]([C@H](O)CC2CC(=O)NC(=O)C2)C(=O)[C@@H](C)C1
- IC50 [3]: 1.01 µM
- IC50 [4, 6]: 1.65 µM
- IC50 [4, 7]: 0.373 µM
- IC50 ([5]; mean of runs): 8.14 µM
- IC50 [5, 6]: 1.85 µM
- IC50 [5, 7]: 14.4 µM

SMILES: CCCS(=O)(=O)c1cnc(C2COc3ccccc3O2)nc1N (stereo unspecified)
- IC50 [3]: 3.78 µM
- IC50 [4, 6]: 2.52 µM
- IC50 [4, 7]: 5.04 µM
- IC50 ([5]; mean of runs): 10.8 µM
- IC50 [5, 6]: 9.07 µM
- IC50 [5, 7]: 12.5 µM

SMILES: Oc1c(I)cc(Cl)c2cccnc12
- IC50 [3]: 15.7 µM
- IC50 [4, 6]: 7.91 µM
- IC50 [4, 7]: 23.5 µM
- IC50 ([5]; mean of runs): 17.9 µM
- IC50 [5, 6]: 15.7 µM
- IC50 [5, 7]: 20.2 µM

SMILES: CC(C)Cc1ccc(C(C)C(N)=NCCc2ccccc2)cc1 (stereo unspecified)
- IC50 [3]: 9.7 µM
- IC50 [4, 6]: 12.2 µM
- IC50 [4, 7]: 7.19 µM
- IC50 ([5]; mean of runs): 13.3 µM
- IC50 [5, 6]: 15 µM
- IC50 [5, 7]: 11.6 µM

SMILES: Cc1cc(C2=NNC(=NC3CC3)SC2)c(C)n1-c1ccccc1F
- IC50 [3]: < 0.2 µM
- IC50 [4, 6]: < 0.2 µM
- IC50 [4, 7]: < 0.2 µM
- IC50 ([5]; mean of runs): 3.3 µM
- IC50 [5, 6]: 2.72 µM
- IC50 [5, 7]: 3.89 µM

SMILES: O=C(OCC(F)(F)F)c1cccc(COc2ccc3ccccc3c2)c1
- IC50 [3]: 1.27 µM
- IC50 [4, 6]: 1.14 µM
- IC50 [4, 7]: 1.4 µM
- IC50 ([5]; mean of runs): 16.1 µM
- IC50 [5, 6]: 14.9 µM
- IC50 [5, 7]: 17.3 µM

SMILES: O=c1cc(-c2ccc(O)cc2)oc2ccc3ccccc3c12
- IC50 [3]: 4.08 µM
- IC50 [4, 6]: 4.65 µM
- IC50 [4, 7]: 3.52 µM
- IC50 ([5]; mean of runs): 1.23 µM
- IC50 [5, 6]: 0.883 µM
- IC50 [5, 7]: 1.57 µM

SMILES: Cc1ccc2nc(-c3ccc(Br)cc3)cn2c1
- IC50 [3]: 6.1 µM
- IC50 [4, 6]: 3.13 µM
- IC50 [4, 7]: 9.07 µM
- IC50 ([5]; mean of runs): 7.81 µM
- IC50 [5, 6]: 2.93 µM
- IC50 [5, 7]: 12.7 µM

SMILES: c1ccc(-c2nc(-c3ccccn3)no2)cc1
- IC50 [3]: inactive
- IC50 [4, 6]: 6.25 µM
- IC50 [4, 7]: > 100 µM
- IC50 ([5]; mean of runs): 2.98 µM
- IC50 [5, 6]: 3.18 µM
- IC50 [5, 7]: 2.79 µM

SMILES: COc1ccc(-c2nc(-c3ccccn3)no2)cc1
- IC50 [3]: 0.552 µM
- IC50 [4, 6]: 0.765 µM
- IC50 [4, 7]: 0.338 µM
- IC50 ([5]; mean of runs): 0.529 µM
- IC50 [5, 6]: 0.472 µM
- IC50 [5, 7]: 0.586 µM

SMILES: Cc1ccc(-n2[nH]c(=O)c(-c3ccccn3)c2C)cc1
- IC50 [3]: 3 µM
- IC50 [4, 6]: 2.62 µM
- IC50 [4, 7]: 3.38 µM
- IC50 ([5]; mean of runs): 11.2 µM
- IC50 [5, 6]: 7.32 µM
- IC50 [5, 7]: 15 µM

SMILES: CC(C)(C)C(=O)Nc1ccc(NC(=O)c2ccco2)nc1
- IC50 [3]: 2.58 µM
- IC50 [4, 6]: 4.91 µM
- IC50 [4, 7]: 0.246 µM
- IC50 ([5]; mean of runs): 0.435 µM
- IC50 [5, 6]: 0.224 µM
- IC50 [5, 7]: 0.646 µM

SMILES: COc1ccc2c(c1)sc1nc(-c3ccccc3)cn12
- IC50 [3]: 2.08 µM
- IC50 [4, 6]: 2.46 µM
- IC50 [4, 7]: 1.7 µM
- IC50 ([5]; mean of runs): 0.403 µM
- IC50 [5, 6]: 0.323 µM
- IC50 [5, 7]: 0.484 µM
